Laboratory results from US20240287154A1, “MC3R AGONIST PEPTIDES” (The Regents of the University of Michigan, priority 2021, published 2024).
Non-standard residues stand in square brackets, D forms with d. Residues, ends and D or L forms follow the SMILES beside them. Phe(4-I) = N[C@@H](Cc1ccc(I)cc1)C(=O)O; Nle = CCCC[C@H](N)C(=O)O; Aib = CC(C)(N)C(=O)O

Biological target: human MC4R (Homo sapiens, UniProt P32245)
Test: Intracellular cAMP levels in live cells, MC3R selectivity relative to MC4R
Assay type: cell-based
Settings: cAMP assays in human MC3R and human MC4R stable cell lines

Sequence of human MC4R (P32245 whole entry): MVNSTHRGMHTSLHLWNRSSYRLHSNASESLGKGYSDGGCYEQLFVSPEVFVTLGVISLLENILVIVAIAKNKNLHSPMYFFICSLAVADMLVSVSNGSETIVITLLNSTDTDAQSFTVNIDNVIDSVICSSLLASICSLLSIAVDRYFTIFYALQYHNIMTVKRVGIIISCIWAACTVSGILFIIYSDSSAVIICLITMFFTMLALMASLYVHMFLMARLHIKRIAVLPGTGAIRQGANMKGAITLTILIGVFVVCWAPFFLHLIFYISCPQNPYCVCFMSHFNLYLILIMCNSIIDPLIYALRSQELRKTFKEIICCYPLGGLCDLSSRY

| Compound | MC3R selectivity (relative to MC4R) |
| --- | --- |
| CCCC[C@H](NC(C)=O)C(=O)N[C@H](C)C(=O)N[C@@H](Cc1c[nH]cn1)C(=O)N[C@@H](Cc1ccccc1)C(=O)N[C@@H](CCCNC(=N)N)C(=O)N[C@H](Cc1c[nH]c2ccccc12)C(=O)N[C@@H](CCCCN)C(=O)N[C@@H](CCCNC(=N)N)C(=O)N[C@@H](Cc1ccccc1)C(=O)NCC(=O)O [CTX-1533, Nle-D-Ala-His-Phe-Arg-D-Trp-Lys-Arg-Phe-Gly] (Ac-[Nle][dA]HFR[dW]KRFG-OH) | 314 |
| CCCC[C@H](NC(C)=O)C(=O)N[C@H](C)C(=O)N[C@@H](Cc1c[nH]cn1)C(=O)N[C@@H](Cc1ccccc1)C(=O)N[C@@H](CCCNC(=N)N)C(=O)N[C@H](Cc1c[nH]c2ccccc12)C(=O)N[C@@H](CC(=O)O)C(=O)N[C@@H](C)C(=O)N[C@@H](Cc1ccccc1)C(=O)NCC(=O)O [CTX-1534, Nle-D-Ala-His-Phe-Arg-D-Trp-Asp-Ala-Phe-Gly] (Ac-[Nle][dA]HFR[dW]DAFG-OH) | 186 |
| CCCC[C@H](NC(C)=O)C(=O)N[C@H](C)C(=O)N[C@@H](Cc1c[nH]cn1)C(=O)N[C@@H](Cc1ccccc1)C(=O)N[C@@H](CCCNC(=N)N)C(=O)N[C@H](Cc1c[nH]c2ccccc12)C(=O)N[C@@H](CC(=O)O)C(=O)N[C@@H](CCCCN)C(=O)N[C@@H](Cc1ccccc1)C(=O)NCC(=O)O [CTX-1535, Nle-D-Ala-His-Phe-Arg-D-Trp-Asp-Lys-Phe-Gly] (Ac-[Nle][dA]HFR[dW]DKFG-OH) | 1,589 |
| CCCC[C@H](NC(C)=O)C(=O)N[C@H](C)C(=O)N[C@@H](Cc1c[nH]cn1)C(=O)N[C@@H](Cc1ccccc1)C(=O)N[C@@H](CCCNC(=N)N)C(=O)N[C@H](Cc1c[nH]c2ccccc12)C(=O)N[C@@H](CC(=O)O)C(=O)N[C@@H](CCCNC(=N)N)C(=O)N1CCC[C@H]1C(=O)NCC(=O)O [CTX-1536, Nle-D-Ala-His-Phe-Arg-D-Trp-Asp-Arg-Pro-Gly] (Ac-[Nle][dA]HFR[dW]DRPG-OH) | 72 |
| CCCC[C@H](NC(C)=O)C(=O)N[C@H](C)C(=O)N[C@@H](Cc1c[nH]cn1)C(=O)N[C@@H](Cc1ccccc1)C(=O)N[C@@H](CCCNC(=N)N)C(=O)N[C@H](Cc1c[nH]c2ccccc12)C(=O)N[C@@H](CC(=O)O)C(=O)N[C@@H](CCCNC(=N)N)C(=O)N[C@@H](C)C(=O)NCC(=O)O [CTX-1537, Nle-D-Ala-His-Phe-Arg-D-Trp-Asp-Arg-Ala-Gly] (Ac-[Nle][dA]HFR[dW]DRAG-OH) | 278 |
| CCCC[C@H](NC(C)=O)C(=O)N[C@H](C)C(=O)N[C@@H](Cc1c[nH]cn1)C(=O)N[C@@H](Cc1ccccc1)C(=O)N[C@@H](CCCNC(=N)N)C(=O)N[C@H](Cc1c[nH]c2ccccc12)C(=O)N[C@@H](CC(=O)O)C(=O)N[C@@H](CCCNC(=N)N)C(=O)N[C@@H](Cc1ccccc1)C(=O)N[C@H](C(=O)O)C(C)C [CTX-1538, Nle-D-Ala-His-Phe-Arg-D-Trp-Asp-Arg-Phe-Val] (Ac-[Nle][dA]HFR[dW]DRFV-OH) | 1,276 |
| CCCC[C@H](NC(C)=O)C(=O)N[C@H](C)C(=O)N[C@@H](Cc1c[nH]cn1)C(=O)N[C@@H](Cc1ccccc1)C(=O)N[C@@H](CCCNC(=N)N)C(=O)N[C@H](Cc1c[nH]c2ccccc12)C(N)=O [CTX-1539, Nle-D-Ala-His-Phe-Arg-D-Trp] (Ac-[Nle][dA]HFR[dW]-NH2) | 16 |
| CCCC[C@H](NC(C)=O)C(=O)N[C@H](C)C(=O)N[C@@H](Cc1c[nH]cn1)C(=O)N[C@@H](Cc1ccccc1)C(=O)N[C@@H](CCCNC(=N)N)C(=O)N[C@H](Cc1c[nH]c2ccccc12)C(=O)NCC(N)=O [CTX-1540, Nle-D-Ala-His-Phe-Arg-D-Trp-Gly] (Ac-[Nle][dA]HFR[dW]G-NH2) | 11 |
| CCCC[C@H](NC(C)=O)C(=O)N[C@H](C)C(=O)N[C@@H](Cc1c[nH]cn1)C(=O)N[C@@H](Cc1ccccc1)C(=O)N[C@@H](CCCNC(=N)N)C(=O)N[C@H](Cc1c[nH]c2ccccc12)C(=O)N[C@@H](Cc1ccccc1)C(N)=O [CTX-1541, Nle-D-Ala-His-Phe-Arg-D-Trp-Phe] (Ac-[Nle][dA]HFR[dW]F-NH2) | 9 |
| CCCC[C@H](NC(C)=O)C(=O)N[C@H](C)C(=O)N[C@@H](Cc1c[nH]cn1)C(=O)N[C@@H](Cc1ccccc1)C(=O)N[C@@H](CCCNC(=N)N)C(=O)N[C@H](Cc1c[nH]c2ccccc12)C(=O)N[C@H](Cc1ccccc1)C(N)=O [CTX-1542, Nle-D-Ala-His-Phe-Arg-D-Trp-D-Phe] (Ac-[Nle][dA]HFR[dW][dF]-NH2) | 15 |
| CCCC[C@H](NC(C)=O)C(=O)NC(C)(C)C(=O)N[C@@H](Cc1c[nH]cn1)C(=O)N[C@@H](Cc1ccc(I)cc1)C(=O)N[C@@H](CCCNC(=N)N)C(=O)N[C@H](Cc1c[nH]c2ccccc12)C(=O)NCC(N)=O [CTX-1545, Nle-Aib-His-Phe(4-I)-Arg-D-Trp-Gly] (Ac-[Nle][Aib]H[Phe(4-I)]R[dW]G-NH2) | 14 |
| CSCC[C@H](NC(=O)[C@@H](NC(=O)[C@@H](N)Cc1ccc(O)cc1)C(C)C)C(=O)NCC(=O)N[C@@H](CCCNC(=N)N)C(=O)N[C@@H](Cc1ccccc1)C(=O)N[C@@H](CCCNC(=N)N)C(=O)N[C@H](Cc1c[nH]c2ccccc12)C(=O)N[C@@H](CC(=O)O)C(=O)N[C@@H](CCCNC(=N)N)C(=O)N[C@@H](Cc1ccccc1)C(=O)NCC(=O)O [CTX-1548, Tyr-Val-Met-Gly-Arg-Phe-Arg-D-Trp-Asp-Arg-Phe-Gly] (H-YVMGRFR[dW]DRFG-OH) | 267 |
| CCCC[C@H](NC(=O)[C@@H](NC(=O)[C@@H](N)Cc1ccc(O)cc1)C(C)C)C(=O)NCC(=O)N[C@@H](CCCNC(=N)N)C(=O)N[C@@H](Cc1ccccc1)C(=O)N[C@@H](CCCNC(=N)N)C(=O)N[C@H](Cc1c[nH]c2ccccc12)C(=O)N[C@@H](CC(=O)O)C(=O)N[C@@H](CCCNC(=N)N)C(=O)N[C@@H](Cc1ccccc1)C(=O)NCC(=O)O [CTX-1549, Tyr-Val-Nle-Gly-Arg-Phe-Arg-D-Trp-Asp-Arg-Phe-Gly] (H-YV[Nle]GRFR[dW]DRFG-OH) | 102 |
| CCCC[C@H](NC(=O)[C@@H](NC(=O)[C@@H](N)Cc1ccc(O)cc1)C(C)C)C(=O)N[C@H](C)C(=O)N[C@@H](Cc1c[nH]cn1)C(=O)N[C@@H](Cc1ccc(I)cc1)C(=O)N[C@@H](CCCNC(=N)N)C(=O)N[C@H](Cc1c[nH]c2ccccc12)C(=O)N[C@@H](CC(=O)O)C(=O)N[C@@H](CCCNC(=N)N)C(=O)N[C@@H](Cc1ccccc1)C(=O)NCC(=O)O [CTX-2122, Tyr-Val-Nle-D-Ala-His-Phe(4-I)-Arg-D-Trp-Asp-Arg-Phe-Gly] (H-YV[Nle][dA]H[Phe(4-I)]R[dW]DRFG-OH) | 324 |
